Reference: patent US20260200890A1, “ADAR1 INHIBITORS AND METHODS OF USING THE SAME” (AVAMMUNE THERAPEUTICS INC., priority 2022, published 2026)

Molecular target: T1, ADAR1 (Homo sapiens, UniProt P55265)
T1 construct: endogenous in cells; host or cells: p110 KO A549 dual cells
T1 sequence (P55265 1-1226): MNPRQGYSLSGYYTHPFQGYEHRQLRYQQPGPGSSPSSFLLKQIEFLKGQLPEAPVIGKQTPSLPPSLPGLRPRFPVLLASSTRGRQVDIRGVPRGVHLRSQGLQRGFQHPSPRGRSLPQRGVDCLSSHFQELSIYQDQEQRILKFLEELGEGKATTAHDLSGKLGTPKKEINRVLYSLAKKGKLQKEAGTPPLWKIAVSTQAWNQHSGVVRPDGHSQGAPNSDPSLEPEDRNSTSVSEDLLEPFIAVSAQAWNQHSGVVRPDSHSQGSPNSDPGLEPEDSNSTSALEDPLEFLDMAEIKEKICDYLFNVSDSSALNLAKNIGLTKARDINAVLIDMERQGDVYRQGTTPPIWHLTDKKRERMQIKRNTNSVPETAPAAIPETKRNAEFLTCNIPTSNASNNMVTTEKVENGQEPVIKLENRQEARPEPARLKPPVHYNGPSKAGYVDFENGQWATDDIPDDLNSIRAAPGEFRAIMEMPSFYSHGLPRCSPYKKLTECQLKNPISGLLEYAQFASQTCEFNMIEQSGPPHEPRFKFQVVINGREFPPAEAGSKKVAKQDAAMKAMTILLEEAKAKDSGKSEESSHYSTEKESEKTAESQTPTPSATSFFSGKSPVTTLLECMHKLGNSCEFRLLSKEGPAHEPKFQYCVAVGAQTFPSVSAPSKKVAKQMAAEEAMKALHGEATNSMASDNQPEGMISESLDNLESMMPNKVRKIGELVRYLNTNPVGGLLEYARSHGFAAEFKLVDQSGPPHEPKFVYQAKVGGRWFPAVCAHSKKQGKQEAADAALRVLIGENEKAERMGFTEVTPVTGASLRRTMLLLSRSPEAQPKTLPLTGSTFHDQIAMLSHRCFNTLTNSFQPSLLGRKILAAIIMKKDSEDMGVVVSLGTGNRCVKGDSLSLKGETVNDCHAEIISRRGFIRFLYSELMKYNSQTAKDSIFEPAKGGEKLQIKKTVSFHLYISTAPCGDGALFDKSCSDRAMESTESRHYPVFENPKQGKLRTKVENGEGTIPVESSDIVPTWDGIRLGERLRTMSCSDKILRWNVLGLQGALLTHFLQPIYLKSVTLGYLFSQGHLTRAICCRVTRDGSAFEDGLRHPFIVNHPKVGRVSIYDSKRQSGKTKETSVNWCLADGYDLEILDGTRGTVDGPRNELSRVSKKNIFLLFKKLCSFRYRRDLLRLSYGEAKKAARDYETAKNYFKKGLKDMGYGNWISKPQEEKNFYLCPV
Test: ADAR1 Inhibition Assay (IFN fold-induction, Quanti-Luc luminescence, p110 KO A549 dual cells)
Type: cell-based
Settings: IFN fold-induction vs DMSO, 24 and 48 h
Procedure: An ADAR1 Inhibition Assay was used to determine the biological activity (EC50) of compounds disclosed herein. 100 μL of p110 KO A549 dual cell suspension in supplemented DMEM (20,000 cells per well) was added into a flat bottom 96 well plate. Next day, post media change, 180 μL of supplemented DMEM was added. 20 μL of test compound or positive control was added to the respective wells (Final concentration of DMSO is 1%). The plate was incubated for 24 and 48 hours at 37° C. in a 5% CO2 incubator. After 24 and 48 h, 20 μL of cell suspension was taken in black well plates and 50 μL of Quanti-Luc was added to each well and luminescence was measured using a microplate reader (Spectra Max). IFN fold-induction was plotted considering DMSO as control using the relative luminescence unit (RLU) values. (Fold induction: Sample RLU/Average DMSO RLU).

Structure (SMILES)	EC50
CCOC(=O)c1c(-c2ccccc2)csc1NC(=O)COC(=O)c1cccc(S(N)(=O)=O)c1 [Compound 3]	> 100 µM
CCOC(=O)c1cc(-c2ccccc2)sc1NC(=O)CNC(=O)c1cccc(S(=O)(=O)N(C)C)c1 [Compound 4]	> 100 µM
CCOC(=O)c1cc(-c2ccccc2)sc1NC(=O)COC(=O)c1ccccc1 [Compound 5]	> 100 µM
CCOC(=O)c1cc(-c2ccccc2)sc1NC(=O)CNC(=O)c1ccccc1 [Compound 6]	> 100 µM
CCOC(=O)c1cc(-c2ccccc2)sc1NC(=O)COC(=O)c1cccc(S(=O)(=O)N(C)C)c1 [Compound 7]	> 100 µM
CCOC(=O)c1cc(-c2ccccc2)sc1NC(=O)CNc1cccc(S(N)(=O)=O)c1 [Compound 8]	> 100 µM
COC(=O)c1nc(NC(=O)COC(=O)c2cccc(S(N)(=O)=O)c2)sc1Br [Compound 9]	> 100 µM
CCOC(=O)c1cc(-c2ccccc2)sc1NC(=O)c1cccc(S(N)(=O)=O)c1 [Compound 10]	> 100 µM
CCOC(=O)c1cc(-c2ccccc2)sc1NC(=O)CNC(=O)c1cccc(S(=O)(=O)NC)c1 [Compound 11]	> 100 µM
CCOC(=O)c1cc(-c2ccccc2)sc1NC(=O)CN [Compound 12]	> 100 µM
CCOC(=O)c1cc(-c2ccccc2)sc1NC(=O)CNCCS(N)(=O)=O [Compound 14]	> 100 µM
CCOC(=O)c1cc(-c2ccccc2)sc1NC(=O)CNc1cccc(S(=O)(=O)N(C)C)c1 [Compound 15]	> 100 µM
CCOC(=O)c1cc(-c2ccccc2)sc1NC(=O)CNC(=O)c1ccc(Br)s1 [Compound 16]	> 100 µM
CCOC(=O)c1cc(-c2ccccc2)sc1NC(=O)CN(C)C [Compound 17]	> 100 µM
NS(=O)(=O)c1cccc(C(=O)NCC(=O)Nc2ccc(-c3ccccc3)s2)c1 [Compound 18]	> 100 µM
NS(=O)(=O)c1cccc(NC(=O)CNC(=O)c2ccc(-c3cccnc3)s2)c1 [Compound 19]	> 100 µM
NS(=O)(=O)c1cccc(NC(=O)CNC(=O)c2csc(-c3cccnc3)n2)c1 [Compound 20]	> 100 µM
CCOC(=O)c1cc(-c2ccccc2)sc1NC(=O)Nc1cccc(S(N)(=O)=O)c1 [Compound 21]	> 100 µM
COC(=O)c1ccsc1NC(=O)CNC(=O)c1cccc(S(N)(=O)=O)c1 [Compound 22]	> 100 µM
NS(=O)(=O)c1cccc(C(=O)NCC(=O)Nc2nc3ccccc3s2)c1 [Compound 23]	> 100 µM

Structure (SMILES)	EC50
CCOC(=O)c1cc(-c2ccccc2)sc1NC(=O)CNC(=O)c1ccc(S(N)(=O)=O)cc1 [Compound 24]	> 100 µM
NS(=O)(=O)c1cccc(NC(=O)c2csc(-c3ccccc3)c2)c1 [Compound 25]	> 100 µM
CCOC(=O)c1cc(-c2ccccc2)sc1NC(=O)CNS(=O)(=O)c1ccc(C)cc1 [Compound 27]	> 100 µM
CCOC(=O)c1cc(-c2ccccc2)sc1NC(=O)CNC(=O)c1cccc(S(=O)(=O)N2CCOCC2)c1 [Compound 28]	> 100 µM
CCOC(=O)c1cc(-c2ccccc2)sc1NC(=O)CNC(=O)c1cccc(S(=O)(=O)N2CCCC2)c1 [Compound 29]	> 100 µM
NS(=O)(=O)c1cccc(NC(=O)CNC(=O)c2csc(-c3ccccc3)c2)c1 [Compound 30]	> 100 µM
CCOC(=O)c1cc(-c2ccccc2)sc1NC(=O)CNC(=O)c1ccc(F)c(S(N)(=O)=O)c1 [Compound 31]	> 100 µM
NS(=O)(=O)c1cccc(NC(=O)Cn2nnc(-c3ccccn3)n2)c1 [Compound 32]	> 100 µM
COC(=O)c1cc(-c2ccncc2)sc1NC(=O)c1cccc(S(N)(=O)=O)c1 [Compound 33]	> 100 µM
Cc1cccc(Cl)c1NC(=O)c1csc(NC(=O)c2cccc(S(N)(=O)=O)c2)n1 [Compound 35]	> 100 µM
CCOC(=O)c1cc(-c2ccccc2)sc1NC(=O)CNC(=O)c1cccc(S(=O)(=O)N2CCCCC2)c1 [Compound 36]	> 100 µM
CCOC(=O)c1cc(-c2ccccc2)sc1NC(=O)COC(=O)c1cc(S(N)(=O)=O)ccc1F [Compound 37]	> 100 µM
COC(=O)c1cc(-c2ccncc2)sc1NC(=O)CNC(=O)c1cccc(S(N)(=O)=O)c1 [Compound 38]	> 100 µM
NS(=O)(=O)c1cccc(NC(=O)CNC(=O)c2ccc(-c3ccccc3)s2)c1 [Compound 40]	> 100 µM
CCOC(=O)c1cc(-c2ccccc2)sc1NC(=O)CNC(=O)c1cccc(S(=O)(=O)NC(C)C)c1 [Compound 41]	> 100 µM
NS(=O)(=O)c1cccc(C(=O)NCC(=O)Nc2ccc3cc(Br)ccc3c2)c1 [Compound 43]	> 100 µM
CCOC(=O)c1cc(-c2ccccc2)sc1NC(=O)CNC(=O)c1cccc(S(=O)(=O)N2CCNCC2)c1 [Compound 47]	> 100 µM
Cc1nc(-c2ccccc2)sc1C(=O)NCC(=O)Nc1cccc(S(N)(=O)=O)c1 [Compound 48]	> 100 µM
NS(=O)(=O)c1cccc(C(=O)NCC(=O)Nc2nnc(-c3ccccc3)s2)c1 [Compound 49]	> 100 µM
CCOC(=O)c1cc(-c2ccccc2)sc1NC(=O)COC(=O)c1cccc(C(N)=O)c1 [Compound 50]	> 100 µM

Structure (SMILES)	EC50
CCOC(=O)c1cc(-c2cc(F)cc(F)c2)sc1NC(=O)COC(=O)c1cccc(S(N)(=O)=O)c1 [Compound 52]	> 100 µM
CCOC(=O)c1cc(-c2ccccc2)sc1NC(=O)CNC(=O)c1cc(S(N)(=O)=O)ccc1C [Compound 53]	> 100 µM
CCOC(=O)c1c(NC(=O)COC(=O)c2cccc(S(N)(=O)=O)c2)sc(C)c1C [Compound 54]	> 100 µM
CCOC(=O)c1cc(-c2ccccc2)sc1NC(=O)c1cccc(S(=O)(=O)NC)c1 [Compound 55]	> 100 µM
CCOC(=O)c1cc(-c2ccccc2)sc1NC(=O)CNC(=O)c1cc(S(N)(=O)=O)ccc1F [Compound 56]	> 100 µM
COC(=O)c1nc(NC(=O)COC(=O)c2cccc(S(N)(=O)=O)c2)sc1-c1ccccc1 [Compound 57]	> 100 µM
CCOC(=O)c1cc(-c2ccccc2)sc1NC(=O)COC(=O)c1cccc(S(=O)(=O)N2CCOCC2)c1 [Compound 58]	> 100 µM
CCOC(=O)c1cc(-c2ccccc2)sc1NC(=O)COC(=O)c1cccc(S(=O)(=O)N2CCC(N)C2)c1 (stereo not drawn) [Compound 59]	> 100 µM
CCOC(=O)c1cc(-c2ccccc2)sc1NC(=O)COC(=O)c1cccc(O)c1 [Compound 60]	> 100 µM
CCOC(=O)c1cc(-c2ccccc2)sc1NC(=O)CNS(=O)(=O)c1cccc(CO)c1 [Compound 61]	> 100 µM
CCOC(=O)c1cc(-c2ccccc2)sc1NC(=O)COC(=O)c1cccc(OC(F)(F)F)c1 [Compound 63]	> 100 µM
CCOC(=O)c1cc(-c2ccccc2)sc1NC(=O)COC(=O)c1cccc(C(C)=O)c1 [Compound 64]	≤ 25 µM
CCOC(=O)c1cc(-c2ccccc2)sc1NC(=O)COC(=O)c1cccc(S(C)(=O)=O)c1 [Compound 65]	> 100 µM
CCOC(=O)c1cc(-c2ccccc2)sc1NC(=O)COC(=O)c1ccc(S(N)(=O)=O)cc1 [Compound 68]	> 100 µM
CCOC(=O)c1cc(-c2ccccc2)sc1NC(=O)COC(=O)c1ccc(F)c(S(N)(=O)=O)c1 [Compound 69]	> 100 µM
CCOC(=O)c1cc(-c2ccc(OC(F)(F)F)cc2)sc1NC(=O)COC(=O)c1cccc(S(N)(=O)=O)c1 [Compound 73]	> 100 µM
CCOC(=O)c1cc(-c2ccccc2)sc1NC(=O)COC(=O)c1ccc(Cl)c(S(N)(=O)=O)c1 [Compound 74]	> 100 µM
CCOC(=O)c1cc(-c2ccc(F)cc2)sc1NC(=O)COC(=O)c1cccc(S(N)(=O)=O)c1 [Compound 75]	≤ 25 µM
CCOC(=O)c1cc(-c2ccccc2)sc1NC(=O)COC(=O)c1cc(S(N)(=O)=O)ccc1C [Compound 76]	> 100 µM
CCOC(=O)c1c(NC(=O)COC(=O)c2cccc(S(N)(=O)=O)c2)sc2c1CCC2 [Compound 77]	> 100 µM
